Source: patent publication US12336981B2, “Compounds and compositions for the inhibition of NAMPT” (Valo Health, Inc., priority 2010, dated 2025)
Read-outs that look alike come from different tables or passages of the source.

Key:
NAMPT = molecular target: T1, NAMPT (Homo sapiens, UniProt P43490); test: Biochemical inhibition assay: NAMPT enzymatic reaction, NMN quantified by mass spectrometry; conditions: read-out: Biochem IC50
T1 construct: His tag; host or cells: E. coli
Outline: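 Inhibition of E. coli-expressed His-tagged human NAMPT, measured as NMN formation by mass spectrometry after a 30 min room-temperature reaction containing 1 μM NAM, 100 μM PRPP and 2.5 mM ATP.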

A2780 cells = test: In-vitro cell proliferation assay (SRB), A2780 cells; format: cell-based; conditions: A2780 cells, 72 hours, read-out: A2780 IC50
Outline: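 Cells were plated overnight at 37° C., 5% CO2, then exposed to serially diluted compounds (0.1% DMSO final) for 72 hours. Viable cells were measured by sulforhodamine B staining after TCA fixation, read at 570 nm; media-only background was subtracted before % inhibition was calculated.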

[1] = Homo sapiens, A2780, 72 h, SRB assay

T1 sequence (P43490 whole entry): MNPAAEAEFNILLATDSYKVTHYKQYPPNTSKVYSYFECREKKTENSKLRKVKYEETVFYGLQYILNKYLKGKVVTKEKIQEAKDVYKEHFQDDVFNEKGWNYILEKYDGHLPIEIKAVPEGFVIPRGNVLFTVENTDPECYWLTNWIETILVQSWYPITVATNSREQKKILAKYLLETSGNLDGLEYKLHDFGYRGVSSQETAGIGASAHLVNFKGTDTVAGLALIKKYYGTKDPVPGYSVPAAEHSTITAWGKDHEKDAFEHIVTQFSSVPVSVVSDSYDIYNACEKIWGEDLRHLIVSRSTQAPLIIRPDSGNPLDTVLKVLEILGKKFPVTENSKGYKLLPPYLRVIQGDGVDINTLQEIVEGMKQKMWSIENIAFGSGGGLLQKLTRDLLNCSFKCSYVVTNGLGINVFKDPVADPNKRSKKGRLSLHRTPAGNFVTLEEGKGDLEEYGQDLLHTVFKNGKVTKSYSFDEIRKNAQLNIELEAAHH

SMILES	IC50 (NAMPT; NAMPT enzymatic reaction)	IC50 (A2780 cells; [1])	IC50 (NAMPT; NAMPT enzymatic assay)	IC50 (A2780 cells; Homo sapiens, A2780, 72 h, SRB)	IC50 (A2780 cells; SRB)
O=C(NCc1ccc(S(=O)(=O)c2ccccc2C(F)(F)F)cc1)c1cc2ccncc2s1 [N-[(4-{[2-(trifluoromethyl)benzene]sulfonyl}phenyl)methyl]thieno[2,3-c]pyridine-2-carboxamide]	0.013 µM	0.026 µM	–	–	–
O=C(NCc1ccc(S(=O)(=O)c2cccc(C(F)(F)F)c2Cl)cc1)c1cnc2[nH]ncc2c1 [N-[(4-{[2-chloro-3-(trifluoromethyl)benzene]sulfonyl}phenyl)methyl]-1H-pyrazolo[3,4-b]pyridine-5-carboxamide]	–	–	0.0365 µM	0.0384 µM	–
O=C(NCc1ccc(S(=O)(=O)c2ccc(C(F)(F)F)cc2Cl)cc1)c1cnc2[nH]ncc2c1 [N-[(4-{[2-chloro-4-(trifluoromethyl)benzene]sulfonyl}phenyl)methyl]-1H-pyrazolo[3,4-b]pyridine-5-carboxamide]	–	–	0.114 µM	0.0869 µM	–
O=C(NCc1ccc(S(=O)(=O)c2cc(OC(F)(F)F)ccc2Cl)cc1)c1cc2cnccc2[nH]1 [N-[(4-{[2-chloro-5-(trifluoromethoxy)benzene]sulfonyl}phenyl)methyl]-1H-pyrrolo[3,2-c]pyridine-2-carboxamide]	–	–	0.0531 µM	0.012 µM	–
CC(C)Oc1cccc(S(=O)(=O)c2ccc(CNC(=O)c3cnc4nccn4c3)cc2)c1F [N-[(4-{[2-fluoro-3-(propan-2-yloxy)benzene]sulfonyl}phenyl)methyl]imidazo[1,2-a]pyrimidine-6-carboxamide]	–	–	0.0018 µM	0.007 µM	–
O=C(NCc1ccc(S(=O)(=O)c2ccc(-n3cccn3)cc2F)cc1)c1ccc2nccn2c1 [N-[(4-{[2-fluoro-4-(1H-pyrazol-1-yl)benzene]sulfonyl}phenyl)methyl]imidazo[1,2-a]pyridine-6-carboxamide]	–	–	0.00844 µM	0.0128 µM	–
O=C(NCc1ccc(S(=O)(=O)c2ccc(-n3cccn3)cc2F)cc1)c1cc2ccncc2s1 [N-[(4-{[2-fluoro-4-(1H-pyrazol-1-yl)benzene]sulfonyl}phenyl)methyl]thieno[2,3-c]pyridine-2-carboxamide]	0.006 µM	0.008 µM	–	–	–
O=C(NCc1ccc(S(=O)(=O)c2ccc(C(F)(F)F)cc2F)cc1)c1cc2cnccc2[nH]1 [N-[(4-{[2-fluoro-4-(trifluoromethyl)benzene]sulfonyl}phenyl)methyl]-1H-pyrrolo[3,2-c]pyridine-2-carboxamide]	–	–	0.0802 µM	0.0281 µM	–
COc1cc(-n2cccn2)ccc1S(=O)(=O)c1ccc(CNC(=O)c2ccc3nccn3c2)cc1 [N-[(4-{[2-methoxy-4-(1H-pyrazol-1-yl)benzene]sulfonyl}phenyl)methyl]imidazo[1,2-a]pyridine-6-carboxamide]	–	–	0.021 µM	0.00359 µM	–
COc1cc(-n2cccn2)ccc1S(=O)(=O)c1ccc(CNC(=O)c2cc3ccncc3s2)cc1 [N-[(4-{[2-methoxy-4-(1H-pyrazol-1-yl)benzene]sulfonyl}phenyl)methyl]thieno[2,3-c]pyridine-2-carboxamide]	0.005 µM	0.0026 µM	–	–	–
COc1cc(C(F)(F)F)ccc1S(=O)(=O)c1ccc(CNC(=O)c2cc3cnccc3[nH]2)cc1 [N-[(4-{[2-methoxy-4-(trifluoromethyl)benzene]sulfonyl}phenyl)methyl]-1H-pyrrolo[3,2-c]pyridine-2-carboxamide]	0.022 µM	0.005 µM	–	–	–
COc1cc(C(F)(F)F)ccc1S(=O)(=O)c1ccc(CNC(=O)c2ccc3nccn3c2)cc1 [N-[(4-{[2-methoxy-4-(trifluoromethyl)benzene]sulfonyl}phenyl)methyl]imidazo[1,2-a]pyridine-6-carboxamide]	–	–	0.0264 µM	0.00984 µM	–
COc1cc(C(F)(F)F)ccc1S(=O)(=O)c1ccc(CNC(=O)c2cc3ccncc3s2)cc1 [N-[(4-{[2-methoxy-4-(trifluoromethyl)benzene]sulfonyl}phenyl)methyl]thieno[2,3-c]pyridine-2-carboxamide]	0.009 µM	0.0075 µM	0.01 µM	0.0022 µM	–
COc1ccc(C(C)C)cc1S(=O)(=O)c1ccc(CNC(=O)c2cnc3[nH]ncc3c2)cc1 [N-[(4-{[2-methoxy-5-(propan-2-yl)benzene]sulfonyl}phenyl)methyl]-1H-pyrazolo[3,4-b]pyridine-5-carboxamide]	–	–	0.0892 µM	0.0294 µM	–
COc1ccc(C(C)C)cc1S(=O)(=O)c1ccc(CNC(=O)c2cc3cnccc3[nH]2)cc1 [N-[(4-{[2-methoxy-5-(propan-2-yl)benzene]sulfonyl}phenyl)methyl]-1H-pyrrolo[3,2-c]pyridine-2-carboxamide]	0.061 µM	0.012 µM	–	–	–
COc1ccc(C(C)C)cc1S(=O)(=O)c1ccc(CNC(=O)c2cc3ccncc3s2)cc1 [N-[(4-{[2-methoxy-5-(propan-2-yl)benzene]sulfonyl}phenyl)methyl]thieno[2,3-c]pyridine-2-carboxamide]	0.009 µM	0.0062 µM	–	–	–

SMILES	IC50 (NAMPT; NAMPT enzymatic reaction)	IC50 (A2780 cells; [1])	IC50 (NAMPT; NAMPT enzymatic assay)	IC50 (A2780 cells; Homo sapiens, A2780, 72 h, SRB)	IC50 (A2780 cells; SRB)
COc1ccc(C(F)(F)F)cc1NS(=O)(=O)c1ccc(CNC(=O)c2cc3cnccc3[nH]2)cc1 [N-[(4-{[2-methoxy-5-(trifluoromethyl)phenyl]sulfamoyl}phenyl)methyl]-1H-pyrrolo[3,2-c]pyridine-2-carboxamide]	0.0005 µM	0.0016 µM	–	–	–
COc1cccc(OC(C)C)c1S(=O)(=O)c1ccc(CNC(=O)c2cc3cnccc3[nH]2)cc1 [N-[(4-{[2-methoxy-6-(propan-2-yloxy)benzene]sulfonyl}phenyl)methyl]-1H-pyrrolo[3,2-c]pyridine-2-carboxamide]	0.036 µM	0.022 µM	–	–	–
Cc1cc(-n2cccn2)ccc1S(=O)(=O)c1ccc(CNC(=O)c2cc3cnccc3[nH]2)cc1 [N-[(4-{[2-methyl-4-(1H-pyrazol-1-yl)benzene]sulfonyl}phenyl)methyl]-1H-pyrrolo[3,2-c]pyridine-2-carboxamide]	0.004 µM	0.004 µM	–	–	–
Cc1cc(-n2cccn2)ccc1S(=O)(=O)c1ccc(CNC(=O)c2ccc3nccn3c2)cc1 [N-[(4-{[2-methyl-4-(1H-pyrazol-1-yl)benzene]sulfonyl}phenyl)methyl]imidazo[1,2-a]pyridine-6-carboxamide]	–	–	0.00799 µM	0.0036 µM	–
Cc1cc(C(F)(F)F)ccc1S(=O)(=O)c1ccc(CNC(=O)c2cnc3[nH]ncc3c2)cc1 [N-[(4-{[2-methyl-4-(trifluoromethyl)benzene]sulfonyl}phenyl)methyl]-1H-pyrazolo[3,4-b]pyridine-5-carboxamide]	–	–	0.1 to 1 µM	0.0746 µM	–
O=C(NCc1ccc(S(=O)(=O)c2cccc(-n3cccn3)c2)cc1)c1cc2cnccc2[nH]1 [N-[(4-{[3-(1H-pyrazol-1-yl)benzene]sulfonyl}phenyl)methyl]-1H-pyrrolo[3,2-c]pyridine-2-carboxamide]	–	–	0.0097 µM	0.0074 µM	–
O=C(NCc1ccc(S(=O)(=O)c2cccc(-n3cccn3)c2)cc1)c1cc2ccncc2s1 [N-[(4-{[3-(1H-pyrazol-1-yl)benzene]sulfonyl}phenyl)methyl]thieno[2,3-c]pyridine-2-carboxamide]	–	–	0.0015 µM	0.0001 µM	–
O=C(NCc1ccc(S(=O)(=O)c2cccc(OCC(F)(F)F)c2)cc1)c1cc2ccncc2o1 [N-[(4-{[3-(2,2,2-trifluoroethoxy)benzene]sulfonyl}phenyl)methyl]furo[2,3-c]pyridine-2-carboxamide]	–	–	0.0072 µM	0.012 µM	–
CC(C)COc1cccc(S(=O)(=O)c2ccc(CNC(=O)c3cc4cnccc4[nH]3)cc2)c1 [N-[(4-{[3-(2-methylpropoxy)benzene]sulfonyl}phenyl)methyl]-1H-pyrrolo[3,2-c]pyridine-2-carboxamide]	–	–	0.0322 µM	0.0143 µM	–
O=C(NCc1ccc(S(=O)(=O)c2cccc(C(=O)NC3CCCC3)c2)cc1)c1cnc2[nH]ncc2c1 [N-[(4-{[3-(cyclopentylcarbamoyl)benzene]sulfonyl}phenyl)methyl]-1H-pyrazolo[3,4-b]pyridine-5-carboxamide]	–	–	0.0333 µM	0.033 µM	–
CCN(CC)C(=O)c1cc(F)cc(S(=O)(=O)c2ccc(CNC(=O)c3cnc4nccn4c3)cc2)c1 [N-[(4-{[3-(diethylcarbamoyl)-5-fluorobenzene]sulfonyl}phenyl)methyl]imidazo[1,2-a]pyrimidine-6-carboxamide]	–	–	0.0047 µM	0.0168 µM	–
CCS(=O)(=O)c1cccc(S(=O)(=O)c2ccc(CNC(=O)c3cc4cnccc4[nH]3)cc2)c1 [N-[(4-{[3-(ethanesulfonyl)benzene]sulfonyl}phenyl)methyl]-1H-pyrrolo[3,2-c]pyridine-2-carboxamide]	–	–	0.017 µM	0.0155 µM	–
COCc1cccc(S(=O)(=O)c2ccc(CNC(=O)c3cnc4[nH]ncc4c3)cc2)c1 [N-[(4-{[3-(methoxymethyl)benzene]sulfonyl}phenyl)methyl]-1H-pyrazolo[3,4-b]pyridine-5-carboxamide]	–	–	0.0387 µM	–	0.0394 µM
COCc1cccc(S(=O)(=O)c2ccc(CNC(=O)c3cc4cnccc4[nH]3)cc2)c1 [N-[(4-{[3-(methoxymethyl)benzene]sulfonyl}phenyl)methyl]-1H-pyrrolo[3,2-c]pyridine-2-carboxamide]	–	–	0.0202 µM	0.0128 µM	–
O=C(NCc1ccc(S(=O)(=O)c2cccc(N3CCOCC3)c2)cc1)c1ccc2ncsc2c1 [N-[(4-{[3-(morpholin-4-yl)benzene]sulfonyl}phenyl)methyl]-1,3-benzothiazole-6-carboxamide]	–	–	0.0401 µM	1 to 10 µM	–
O=C(NCc1ccc(S(=O)(=O)c2cccc(N3CCCCC3)c2)cc1)c1cc2ccncc2o1 [N-[(4-{[3-(piperidin-1-yl)benzene]sulfonyl}phenyl)methyl]furo[2,3-c]pyridine-2-carboxamide]	–	–	0.0113 µM	0.0127 µM	–
